# Assay results taken from PMC10927554, “An improved pathway for autonomous bioluminescence imaging in eukaryotes” (Nature Methods, 2024).
# Target: T1, nnLuz (Neonothopanus nambi, UniProt A0A3G9JYH7, I3S/N4T/F11L/I63T/T99P/T192S/A199P)
# T1 construct: gene luz; HiBiT-tag fusion, expressed in yeast Pichia pastoris GS115, clarified lysate; codon-optimized synthetic gene
# Assay: luminescence, Michaelis-Menten fit, HiBiT-normalized
# Assay type: biochemical
# Conditions: yeast lysate; 0.2 M sodium phosphate, 0.5 M Na2SO4, pH 8; Fln 0.0244-50 uM; DDM, thioglycolic acid; variant nnLuz_v4
# T1 sequence (A0A3G9JYH7 whole entry I3S/N4T/F11L/I63T/T99P/T192S/A199P, the tested form may be a part): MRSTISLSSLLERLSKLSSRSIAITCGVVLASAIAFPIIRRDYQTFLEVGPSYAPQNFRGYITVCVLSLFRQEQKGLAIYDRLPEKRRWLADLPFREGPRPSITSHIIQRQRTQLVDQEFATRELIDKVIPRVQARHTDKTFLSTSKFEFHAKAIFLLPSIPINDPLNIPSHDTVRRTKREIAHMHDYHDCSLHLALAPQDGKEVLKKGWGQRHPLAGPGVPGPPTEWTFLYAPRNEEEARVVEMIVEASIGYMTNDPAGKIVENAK
smiles,measurement,value
"O=c1oc(/C=C/c2ccc(O)c(O)c2)cc(O)c1O [Fln, fungal luciferin]",KM,Yeast strains expressing nnLuz_wt/v4–HiBIT fusions were inoculated into YPD medium
